One assay has as its system TGF-β signaling. In words: Assay for evaluating cellular inhibition of TGF-β signaling, 4T1 (SBE-luc2P) luciferase reporter. It is filed as cell-based. To be noted: Mus musculus, 4T1, 4T1 (SBE-luc2P) transient pool, 0.2% FBS, 2 h pre-treatment, TGF-β1 2 ng/mL 24 h; read-out: IC50 4T1 Cell. The method in brief: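 Luminescence from SMAD-binding-element luciferase was measured after 24 h of 2 ng/mL TGF-β1 at 37 °C, following 2 h compound pre-treatment. HEK293 stable reporter cells were used at 2.5×10^4/well in 0.5% FBS (~80% confluent); the 4T1 SBE-luc2P transient pool at 6×10^3/well in 0.2% FBS (~60% confluent).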
In general terms: In a reporter assay the amount or activity of a reporter protein is the signal.

The next assay deals with T1, ALK5 kinase (Homo sapiens, UniProt P36897).
T1 sequence (P36897 34-503): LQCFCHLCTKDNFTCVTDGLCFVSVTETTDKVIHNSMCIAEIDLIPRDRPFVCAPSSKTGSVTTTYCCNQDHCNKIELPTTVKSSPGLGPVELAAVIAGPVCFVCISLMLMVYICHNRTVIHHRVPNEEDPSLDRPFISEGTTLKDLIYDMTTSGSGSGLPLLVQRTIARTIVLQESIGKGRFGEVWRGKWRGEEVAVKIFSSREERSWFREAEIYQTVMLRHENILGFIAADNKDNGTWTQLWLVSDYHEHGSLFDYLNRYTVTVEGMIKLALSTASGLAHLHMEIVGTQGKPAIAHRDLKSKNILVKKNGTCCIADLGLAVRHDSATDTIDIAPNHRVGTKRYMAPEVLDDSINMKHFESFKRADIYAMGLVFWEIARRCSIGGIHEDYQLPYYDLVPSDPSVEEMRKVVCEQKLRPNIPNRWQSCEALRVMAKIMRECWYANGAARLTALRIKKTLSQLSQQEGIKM
In words: LanthaScreen Eu Kinase Binding Assay. To be noted: Kinase Tracer 178, Eu-anti-GST Antibody, read-out: IC50 Enzyme. The procedure:
[Example 1] LanthaScreen Eu Kinase Binding Assay
4 μL of 4× Test Compound in 4% DMSO and 4 μL of 4× Kinase in Kinase buffer were added to wells (low volume, white 384-well plate (Greiner Cat. #784207)). The plate was shaken for 30 seconds, centrifuged for 10 seconds at 1000 rpm, and incubated at RT for 30 minutes. Then, 4 μL of 4× Eu-anti-GST Antibody and 4 μL of 4× Kinase Tracer 178 were added to the wells. The plate was shaken for 30 seconds, centrifuged for 10 seconds at 1000 rpm, and incubated at RT for 60 minutes. Fluorescence was measured by a plate reader, Biotek Synergy H1 (Vermont, USA) under the following conditions. • Excitation: 340 nm (3 nm bandpass) • Kinase tracer emission: 665 nm (10 nm bandpass) • Eu Ab emission: 615 nm (10 nm bandpass) • Emission ratio=665 nm (tracer)/615 nm (Eu Ab) • The higher the binding affinity of compound to ALK5 kinase is, the less the emission ratio is.
In general terms: TR-FRET usually uses a lanthanide donor and a delayed reading to cut background.

What is called IC50 is the concentration needed to halve the response being measured. In the case of `CCc1nc(-c2ccccc2)c(Oc2ccnc(Nc3ccc(C(=O)NC)cc3)c2)s1` [A-189, 4-((4-((2-Ethyl-4-phenylthiazol-5-yl)oxy)pyridin-2-yl)amino)-N-methylbenzamide], the IC50 with TGF-β signaling and on ALK5 kinase was under 100 nM throughout.
For the compound `Cc1cccc(-c2nc(C3CC3)sc2Oc2ccnc(Nc3ccc(C(N)=O)cn3)c2)n1` [A-275], the IC50 in the assay on TGF-β signaling and at ALK5 kinase was under 100 nM throughout.
For `CNC(=O)c1ccc(Nc2cc(Oc3sc(C4CC4)nc3-c3ccccc3)ccn2)nc1` [A-133, 6-((4-((2-Cyclopropyl-4-phenylthiazol-5-yl)oxy)pyridin-2-yl)amino)-N-methylnicotinamide], the IC50 in the assay on TGF-β signaling and on ALK5 kinase was under 100 nM throughout.
As for `NC(=O)c1ccc(Nc2cc(Oc3sc(C(F)(F)F)nc3-c3ccccc3)ccn2)cc1` [A-147, 4-((4-((4-Phenyl-2-(trifluoromethyl)thiazol-5-yl)oxy)pyridin-2-yl)amino)benzamide], the IC50 with TGF-β signaling and at ALK5 kinase was under 100 nM throughout.
`CN(C)c1nc(-c2ccccc2)c(Oc2ccnc(Nc3ccc(C(=O)O)cc3)c2)s1` [A-168, 4-((4-((2-(Dimethylamino)-4-phenylthiazol-5-yl)oxy)pyridin-2-yl)amino)benzoic acid]: the IC50 in the assay with TGF-β signaling and on ALK5 kinase was under 100 nM each time.
`CNc1nc(-c2ccccc2)c(Oc2ccnc(Nc3cccc(C(C)(C)O)c3)c2)s1` [A-50, 2-(3-((4-((2-(Methylamino)-4-phenylthiazol-5-yl)oxy)pyridin-2-yl)amino)phenyl)propan-2-ol]: the half-inhibitory concentration (IC50) is over 100 nM in the assay on TGF-β signaling and under 100 nM on ALK5 kinase.
For `CCc1nc(-c2cccc(C)n2)c(Oc2ccnc(Nc3cccc(C(=O)NC)n3)c2)s1` [A-256, 6-((4-((2-Ethyl-4-(6-methylpyridin-2-yl)thiazol-5-yl)oxy)pyridin-2-yl)amino)-N-methylpicolinamide], in that order: under 100 nM and under 100 nM.
The matching figures for `Cc1nc(-c2ccccc2)c(Oc2ccnc(Nc3ccc(N4CCNCC4)cc3)c2)s1` [A-104, 4-((2-Methyl-4-phenylthiazol-5-yl)oxy)-N-(4-(piperazin-1-yl)phenyl)pyridin-2-amine]: under 100 nM and under 100 nM.
As to `CC(C)c1nc(-c2ccccc2)c(Oc2ccnc(Nc3cccc(S(N)(=O)=O)c3)c2)s1` [A-218, 3-((4-((2-Isopropyl-4-phenylthiazol-5-yl)oxy)pyridin-2-yl)amino)benzenesulfonamide], the IC50 in the assay on TGF-β signaling and on ALK5 kinase was over 100 nM each time.
For `Cc1nc(-c2ccccc2)c(Oc2ccnc(Nc3ccc(OCCN4CCCCC4)cc3)c2)s1` [A-105, 4-((2-Methyl-4-phenylthiazol-5-yl)oxy)-N-(4-(2-(piperidin-1-yl)ethoxy)phenyl)pyridin-2-amine], the IC50 in the assay with TGF-β signaling and at ALK5 kinase was under 100 nM throughout.
Turning to `CCc1nc(-c2cccc(C)n2)c(Oc2ccnc(Nc3ccc(C(=O)O)cn3)c2)s1` [A-252, 6-((4-((2-Ethyl-4-(6-methylpyridin-2-yl)thiazol-5-yl)oxy)pyridin-2-yl)amino)nicotinic acid], the IC50 in the assay on TGF-β signaling and on ALK5 kinase was under 100 nM each time.
Take `O=C(O)c1cccc(Nc2cc(Oc3sc(C4CC4)nc3-c3ccccc3)ccn2)n1` [A-134, 6-((4-((2-Cyclopropyl-4-phenylthiazol-5-yl)oxy)pyridin-2-yl)amino)picolinic acid]: the IC50 in the assay with TGF-β signaling and on ALK5 kinase was under 100 nM each time.
For the compound `O=C(O)c1ccc(Nc2cc(Oc3sc(C(F)(F)F)nc3-c3ccccc3)ccn2)nc1` [A-149, 6-((4-((4-Phenyl-2-(trifluoromethyl)thiazol-5-yl)oxy)pyridin-2-yl)amino)nicotinic acid], the IC50 in the assay with TGF-β signaling and on ALK5 kinase was under 100 nM each time.
With `CC(C)c1nc(-c2ccccc2)c(Oc2ccnc(Nc3ccc(C(=O)O)cn3)c2)s1` [A-232, 6-((4-((2-Isopropyl-4-phenylthiazol-5-yl)oxy)pyridin-2-yl)amino)nicotinic acid], the IC50 with TGF-β signaling and on ALK5 kinase was under 100 nM throughout.
`CN(C)c1nc(-c2ccccc2)c(Oc2ccnc(Nc3ccnc(C(C)(C)O)c3)c2)s1` [A-158, 2-(4-((4-((2-(Dimethylamino)-4-phenylthiazol-5-yl)oxy)pyridin-2-yl)amino)pyridin-2-yl)propan-2-ol]: the IC50 is over 100 nM in the assay on TGF-β signaling and under 100 nM at ALK5 kinase.
The matching figures for `CN(C)C(=O)c1cccc(Nc2cc(Oc3sc(N)nc3-c3ccccc3)ccn2)c1` [A-10, 3-((4-((2-Amino-4-phenylthiazol-5-yl)oxy)pyridin-2-yl)amino)-N,N-dimethylbenzamide]: over 100 nM and under 100 nM.
For `Nc1nc(-c2ccc3ccccc3c2)c(Oc2ccnc(Nc3cccc(S(N)(=O)=O)c3)c2)s1` [A-234, 3-((4-((2-Amino-4-(naphthalen-2-yl)thiazol-5-yl)oxy)pyridin-2-yl)amino)benzenesulfonamide], in that order: over 100 nM and over 100 nM.
For `CCc1nc(-c2ccccc2)c(Oc2ccnc(Nc3cccc(NS(=O)(=O)CC)c3)c2)s1` [A-188, N-(3-((4-((2-Ethyl-4-phenylthiazol-5-yl)oxy)pyridin-2-yl)amino)phenyl)ethanesulfonamide], in that order: under 100 nM and under 100 nM.
As to `Cc1nc(-c2ccccc2)c(Oc2ccnc(Nc3cccc(CCC#N)c3)c2)s1` [A-113, 3-(3-((4-((2-Methyl-4-phenylthiazol-5-yl)oxy)pyridin-2-yl)amino)phenyl)propanenitrile], the IC50 with TGF-β signaling and on ALK5 kinase was under 100 nM throughout.
Regarding `CC(C)(O)c1cc(Nc2cc(Oc3sc(N)nc3-c3ccccc3)ccn2)ccn1` [A-42, 2-(4-((4-((2-Amino-4-phenylthiazol-5-yl)oxy)pyridin-2-yl)amino)pyridin-2-yl)propan-2-ol], the IC50 with TGF-β signaling was over 100 nM; at ALK5 kinase, under 100 nM.
For the compound `CC(C)c1nc(-c2ccccc2)c(Oc2ccnc(Nc3ccc(S(N)(=O)=O)cc3)c2)s1` [A-221, 4-((4-((2-Isopropyl-4-phenylthiazol-5-yl)oxy)pyridin-2-yl)amino)benzenesulfonamide], the IC50 in the assay on TGF-β signaling was over 100 nM; at ALK5 kinase it was under 100 nM.
With `CNC(=O)c1cccc(Nc2cc(Oc3sc(N(C)C)nc3-c3ccccc3)ccn2)n1` [A-161, 6-((4-((2-(Dimethylamino)-4-phenylthiazol-5-yl)oxy)pyridin-2-yl)amino)-N-methylpicolinamide], the concentration for half-maximal inhibition (IC50) in the assay on TGF-β signaling and on ALK5 kinase was under 100 nM in each case.
In the case of `Cc1cccc(-c2nc(N)sc2Oc2ccnc(Nc3cccc(C(=O)O)c3)c2)n1` [A-249, 3-((4-((2-Amino-4-(6-methylpyridin-2-yl)thiazol-5-yl)oxy)pyridin-2-yl)amino)benzoic acid], the IC50 in the assay on TGF-β signaling and at ALK5 kinase was under 100 nM each time.
On to `Nc1nc(-c2ccccc2)c(Oc2ccnc(Nc3ccc(S(N)(=O)=O)cc3)c2)s1` [A-4, 4-((4-((2-Amino-4-phenylthiazol-5-yl)oxy)pyridin-2-yl)amino)benzenesulfonamide], for which the IC50 in the assay with TGF-β signaling is over 100 nM; on ALK5 kinase, under 100 nM.
With `Cc1cccc(-c2nc(C(F)(F)F)sc2Oc2ccnc(Nc3cccc(C(N)=O)c3)c2)n1` [A-291, 3-((4-((4-(6-Methylpyridin-2-yl)-2-(trifluoromethyl)thiazol-5-yl)oxy)pyridin-2-yl)amino)benzamide], the IC50 in the assay with TGF-β signaling and on ALK5 kinase was under 100 nM throughout.
As for `CNC(=O)c1ccc(Nc2cc(Oc3sc(N(C)C)nc3-c3cccc(C)n3)ccn2)nc1` [A-286, 6-((4-((2-(Dimethylamino)-4-(6-methylpyridin-2-yl)thiazol-5-yl)oxy)pyridin-2-yl)amino)-N-methylnicotinamide], the IC50 in the assay on TGF-β signaling and at ALK5 kinase was under 100 nM in each case.
Turning to `CNC(=O)c1cccc(Nc2cc(Oc3sc(C)nc3-c3ccccc3)ccn2)c1` [A-69, N-Methyl-3-((4-((2-methyl-4-phenylthiazol-5-yl)oxy)pyridin-2-yl)amino)benzamide], the IC50 in the assay with TGF-β signaling and at ALK5 kinase was under 100 nM throughout.
With `COC(=O)c1cccc(Nc2cc(Oc3sc(N)nc3-c3ccccc3)ccn2)c1` [A-3, Methyl 3-((4-((2-amino-4-phenylthiazol-5-yl)oxy)pyridin-2-yl)amino)benzoate], the half-maximal inhibitory concentration (IC50) in the assay with TGF-β signaling was over 100 nM; at ALK5 kinase, under 100 nM.

Source of the values: patent publication US20250206730A1 (AUTOTELIC BIO INC., priority 2022, published 2025).
